Patent US7317038B2, “Nerve regeneration promoters containing semaphorin inhibitor as the active ingredient” (Dainippon Sumitomo Pharma Co., Ltd., priority 2000, dated 2008)

How the values were obtained:
[1] = molecular target: T1, mouse semaphorin 3A (Sema3A) (Mus musculus, UniProt O08665); test: Suppression of growth cone collapse activity of Sema3A (chick embryo dorsal root ganglions); format: cell-based; details: E7 chick embryo dorsal root ganglions; 2 units/ml Sema3A added 1 hour after compound; concentration where collapse rate = (A+B)/2; read-out: IC50 of inhibition of the growth cone collapse activity of Sema3A (converted)
T1 sequence (O08665 21-772): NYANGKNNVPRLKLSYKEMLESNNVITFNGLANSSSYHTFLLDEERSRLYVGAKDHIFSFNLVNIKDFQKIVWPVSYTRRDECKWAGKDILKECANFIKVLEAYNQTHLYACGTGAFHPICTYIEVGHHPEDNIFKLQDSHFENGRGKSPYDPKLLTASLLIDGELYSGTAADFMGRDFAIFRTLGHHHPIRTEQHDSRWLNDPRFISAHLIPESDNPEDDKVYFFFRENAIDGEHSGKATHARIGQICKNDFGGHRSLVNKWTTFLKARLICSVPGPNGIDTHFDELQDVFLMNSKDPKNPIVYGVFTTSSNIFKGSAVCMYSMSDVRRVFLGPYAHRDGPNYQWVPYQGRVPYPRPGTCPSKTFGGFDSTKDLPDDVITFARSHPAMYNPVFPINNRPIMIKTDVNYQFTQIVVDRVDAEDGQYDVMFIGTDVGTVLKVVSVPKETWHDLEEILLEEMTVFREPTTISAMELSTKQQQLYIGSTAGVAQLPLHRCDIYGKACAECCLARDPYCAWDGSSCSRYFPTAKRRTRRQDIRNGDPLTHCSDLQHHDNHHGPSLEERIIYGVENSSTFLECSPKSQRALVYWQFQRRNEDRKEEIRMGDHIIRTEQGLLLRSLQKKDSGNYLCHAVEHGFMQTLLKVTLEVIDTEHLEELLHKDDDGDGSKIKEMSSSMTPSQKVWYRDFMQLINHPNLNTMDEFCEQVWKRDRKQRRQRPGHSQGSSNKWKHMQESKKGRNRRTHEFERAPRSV
Description: A 96-well plate (Sumitomo Bakelite Co., ltd. ) pre-coated with polylysine was further coated with laminine (20 μg/ml of laminine, for 1 hour at room temperature). Each well was added with 100 μl of medium (F12 medium containing 10% bovine fetal serum, 20 ng/ml of NGF, 100 units/ml of penicillin and 100 μg/ml of streptomycin) which media were then inoculated with dorsal root nerve ganglions excised from E7 (Embryonic day 7) chick embryo and were cultured for 16 to 20 hours under 5% CO2 and at 37° C. Subsequently, the object compounds were added to media at various concentrations and 2 units/ml of mouse semaphorin 3A (Sema3A) was added after cultivating for 1 hour. The cultures were further incubated for another 1 hour. Glutaraldehyde was quickly added therein after said 1 hour to make the final concentration 1%. The cultures were then left for 15 minutes at room temperature so that the tissue sections were fixed, and collapse rates of the growth cones were microscopically observed. A well with no addition of Sema3A was made the control.
The longitudinal and lateral axes in the figures represent the collapse rate of growth cones and the concentration of compounds, respectively. ●▪▴ show the results when Sema3A was added after the addition of the compounds and ◯[…]Δ show those when Sema3A was not added. Further, IC50 (μg/ml) of the inhibitors were determined by the method comprising: calculating the collapse rate of growth cone (A) % of the negative controls (neither compounds nor Sema3a was added); subsequently calculate the collapse rate of growth cone (B) % of the positive controls (compounds were not added but Sema3a was added); and the concentration was chosen for each compound from the chart where the collapse rate of growth cone met (A+B)/2(%), which was made IC50 level. The followings are the results.

Sema3A = molecular target: T2, Sema3A (Mus musculus, UniProt O08665); test: Collagen gel co-culture: suppression of neurite outgrowth inhibitory action of Sema3A; format: cell-based; set-up: key to suppression of neurite outgrowth inhibitory activity of Sema3A, score / inhibition of neurite outgrowth-inhibitory action of Sema3A, score: neurites outgrew in a complete concentric circular shape just like for the control groups where Sema3A-non-expressing COS7 cells were used, it was scored +++ (a strong inhibitory effect for Sema3A); outgrowth was found almost in a concentric circular shape accompanied with a little suppression of the outgrowth toward the direction of Sema3A-expressing COS cells, it was scored ++; outgrowth toward the direction of Sema3A-expressing COS cells is fairly suppressed to present a crescent shape, it was scored +; outgrowth toward the direction of Sema3A-expressing COS cells was not found at all (no inhibitory effect for Sema3A), it was scored −; details: Example 16
T2 construct: expressed in transfected cells; host or cells: COS7
T2 sequence (O08665 21-772): T1 sequence (O08665 21-772)
Description: Whether the object compounds (SPF-3059-1, M162, A721) have persistent inhibitory action to Sema3A was analyzed by the collagen gel co-culture method (Neuroprotocols 4, 116, 1994) using Sema3A-expressing COS7 cell clumps and 7- or 8-day-old chick embryo dorsal root ganglions. The Sema3A-expressing COS7 cell clumps were generated as follows. 1 μg of Sema3A-expression plasmid was introduced into COS7 cells (100000 cells/35 mm culture plate), which were cultured overnight, with the FuGENE6 transfection reagent (Roche). 2.5 hours after the starting of the transfection, the COS7 cells were collected by trypsinization and centrifugation, and re-suspended in a medium of 200 μl. 20 μl of the cell suspension was placed on the lid of the culture plate (inside) and the lid was turned over, and then the suspension was cultivated for 20 hours (hanging drop culture) (Cell 78, 425, 1994). When the culture was over, aggregated COS7 cells (clump) were collected and trimmed to a diameter of 0.5 mm. The Sema3A-expressing COS7 cell clump and the above-mentioned dorsal root ganglions were placed in parallel at a distance of 0.5 to 1 mm in a 0.2% collagen gel which was then cultivated in a medium containing the aforementioned compounds at various concentrations for 2 days at 37° C. under 5% CO2. Glutaraldehyde was quickly added therein to make the final concentration 1%. The cultures were then left for 1 hour at room temperature so that the tissues were fixed, and the neurite outgrowth was microscopically observed. The results are found in FIG. 4.
When a medium not containing a subject compound was used, neurites were unable to grow towards the COS7 cell clump with the high concentration of Sema3A and grew only to the opposite direction.
In a similar way as in Example 4, suppression of the neurite outgrowth inhibitory activity was analyzed for the compounds, SPF-3059-1, SPF-3059-2 and SPF-3059-5. When the neurites outgrew in a complete concentric circular shape just like for the control groups where Sema3A-non-expressing COS7 cells were used, it was scored +++ (a strong inhibitory effect for Sema3A). When the outgrowth was found almost in a concentric circular shape accompanied with a little suppression of the outgrowth toward the direction of Sema3A-expressing COS cells, it was scored ++. […] When the outgrowth toward the direction of Sema3A-expressing COS cells was not found at all (no inhibitory effect for Sema3A), it was scored −.

COS7 cells = test: Effect on cell proliferation (MTT); format: cell-based; details: Chlorocebus aethiops, COS-7, 48 h, two days, read-out: IC50, inhibitory rate for cell proliferation
Description: COS7 cells were seeded onto a 96-well plate (medium 100 μl/well) at 10000 cells per well. At the same time, SPF-3059-1 of various concentrations was added and the cells were cultivated for two days in the presence of 5% CO2 at 37° C. Each well was then added with 10 μl of MTT solution at 5 mg/ml and cultured for another one hour. Subsequently, the culture supernatant was removed and formazan (an MTT derivative produced in viable cells) accumulated in the cells was dissolved by the addition of 50 μl DMSO and then the absorbance at 570 nm was measured to determine the proliferation of COS7 cells. […] The longitudinal and lateral axes in the figure show cell proliferation and the SPF-3059-1 concentration, respectively. Besides, the standard deviation (n=4) was added to each column.
The same effect on cell proliferation as in Example 9 was examined for the compounds, SPF-3059-1, SPF-3059-2 and SPF-3059-5. The wells with these compounds were served as samples, the wells with PBS were served as control, and the wells for which the experiment was carried out without adding the cells was served as blank. IC50 (μg/ml), the inhibitory rate for cell proliferation, was determined, which is calculated by the equation shown below. The inhibitory rate for cell proliferation (%)=(1−(absorbance of a sample well−absorbance of the blank well)/(absorbance of the control well−absorbance of the blank well))×100

Solubility = format: physicochemical

SMILES	IC50 [1] [µM]	inhibition of neurite outgrowth-inhibitory action of Sema3A, score (Sema3A; 2 μg/ml compound)	IC50 (COS7 cells) [mg/L]	Solubility (Solubility; methanol, DMSO)	Solubility (Solubility; water, hexane)	inhibition of neurite outgrowth-inhibitory action of Sema3A, score (Sema3A; 6 μg/ml compound)	inhibition of neurite outgrowth-inhibitory action of Sema3A, score (Sema3A; 20 μg/ml compound)
CC(=O)c1c(C)c(C(=O)C2COc3cc(O)c(O)c(C(=O)O)c3C2=O)cc2c(=O)c3cc(O)c(O)cc3oc12 (stereo not drawn) [SPF-3059-3]	0.374	+++	> 100	Soluble	Insoluble		
CC(=O)c1cc2c(=O)c3c(C(=O)O)cc(O)cc3oc2c(C(C)=O)c1-c1coc2cc(O)c(O)c(C(=O)O)c2c1=O [SPF-3059-4]	3.57	−	> 100	Soluble	Insoluble	+	++
COCc1c(-c2cc3c(=O)c4c(C(=O)O)c(O)c(O)cc4oc3c(C(C)=O)c2C)oc2cc(O)c(O)c(C(=O)O)c2c1=O [SPF-3059-6]	0.169	++	> 100	Soluble	Insoluble	++	+++
CC(=O)c1c(C)c(C(=O)C2COc3cc(O)c(O)c(C(=O)O)c3C2=O)cc2c(=O)c3c(C(=O)O)cc(O)cc3oc12 (stereo not drawn) [SPF-3059-7]	1.78	+	> 100	Soluble	Insoluble	+	++
CC(=O)c1cc2c(=O)c3c(C(=O)O)c(O)c(O)cc3oc2c(C(C)=O)c1-c1coc2cc(O)cc(C(=O)O)c2c1=O [SPF-3059-12]	3.57	+	> 100	Soluble	Insoluble	+	++
